{
  "source": "patent US8450300B2",
  "about": "(priority 2009, dated 2013)",
  "key": {"WT isolates [1]": {"tested_on": "WT isolates", "test": "Synergy by the checkerboard method", "type": "cell-based", "details": "FA/co-drug combination, count", "experimental": "(§1) CLSI broth microdilution (BMD) and anaerobic agar dilution (AD) methods were performed. Modifications of standard test methods included adding 10% human serum, adjusting the medium pH to 5, 6, and 8, and synergy was assessed by the checkerboard method."}, "S. aureus [2]": {"tested_on": "S. aureus", "test": "Reference broth microdilution susceptibility testing (CLSI M07-A8), Canadian isolates", "type": "cell-based", "details": "for R rate: overall S. aureus population; for number of isolates inhibited: Staphylococcus aureus", "source_text": "Methods: To determine a contemporary susceptibility (S) spectrum pattern, 153 GP isolates (123 S. aureus, 15 coagulase-negative staphylococci [CoNS] and 15 S. pyogenes [SPYO]) were collected from 5 Canadian medical centers between 2001 and 2006."}, "[3]": {"tested_on": "217 S. aureus Canadian isolates", "type": "cell-based", "details": "Canadian S. aureus isolates, comparators", "experimental": "as §1"}, "S. aureus [4]": {"tested_on": "S. aureus", "test": "MIC of S. aureus in humans (description)", "type": "cell-based", "details": "Staphylococcus aureus"}, "[5]": {"tested_on": "methicillin-resistant S. aureus (MRSA) strain USA 300", "test": "Hollow fiber pharmacodynamic model, resistance potential", "type": "cell-based", "details": "600 mg q12h", "experimental": "A hollow fiber model was used to evaluate CEM-102 resistance potential in methicillin-resistant S. aureus (MRSA) strain USA 300 (Network of Antimicrobial Resistance in Staphylococcus aureus (NARSA), Chantilly, Va.). USA 300 is a highly virulent strain of MRSA and is the most common community-associated MRSA isolate in the USA. MIC values were determined in accordance with Clinical and Laboratory Standards Institute (CLSI).\nThe hollow fiber model comprised a two-compartment hollow fiber model (Louie et al. Antimicrob Agents Chemother 52:2486-2496(2008)) consisting of a volume of 15 mL in the central compartment, with multiple ports for the removal of broth, delivery of antibiotics, and collection of bacterial and antimicrobial samples. […] All experiments were performed in duplicate.\nHollow fibers contain 15 ml of media was prepared and inoculated with 10^6 colony forming units (CFU)/mL USA 300 bacteria. One of three different dosing regimens of […] was then applied to the fibers: (1) […] q12h; (2) 1200 mg/ml×2, followed by […], q12h; (3) 1500 mg/ml×2, followed by […], q12h."}, "[6]": {"details": "cited from earlier work"}, "[7]": {"tested_on": "E. brevis, M. catarrhalis and N. meningitidis", "test": "CLSI MIC, spectrum study", "type": "cell-based", "experimental": "as §1"}, "GN species": {"tested_on": "GN species", "test": "CLSI MIC, spectrum study", "type": "cell-based", "details": "all GN except E. brevis, M. catarrhalis, N. meningitidis", "experimental": "as §1"}, "[8]": {"tested_on": "Gram-positive (GP) species", "test": "CLSI broth microdilution / anaerobic agar dilution MIC, spectrum study", "type": "cell-based", "details": "all GP isolates", "experimental": "as §1"}, "WT isolates [9]": {"tested_on": "WT isolates", "test": "MIC with 10% human serum or adjusted medium pH", "type": "cell-based", "experimental": "as §1"}, "WT isolates [10]": {"tested_on": "WT isolates", "test": "Single-step mutational rates to resistance", "type": "cell-based"}},
  "note": "Where two headings read alike, the source gives them in different places.",
  "data": [
    {"compound": "gentamicin", "values": [
      {"measurement": "Additive", "setting": "WT isolates [1]", "value": 3},
      {"measurement": "Antagonism", "setting": "WT isolates [1]", "value": 0},
      {"measurement": "Indeterminate", "setting": "WT isolates [1]", "value": 0},
      {"measurement": "Indifferent", "setting": "WT isolates [1]", "value": 1},
      {"measurement": "Synergy: Complete", "setting": "WT isolates [1]", "value": 1},
      {"measurement": "Synergy: Partial", "setting": "WT isolates [1]", "value": 1}
    ]},
    {"compound": "CC[C@H]1OC(=O)[C@H](C)[C@@H](O[C@H]2C[C@@](C)(OC)[C@@H](O)[C@H](C)O2)[C@H](C)[C@@H](O[C@@H]2O[C@H](C)C[C@H](N(C)C)[C@H]2O)[C@](C)(O)C[C@@H](C)C(=O)[C@H](C)[C@@H](O)[C@]1(C)O", "note": "[erythromycin]", "values": [
      {"measurement": "R rate", "setting": "S. aureus [2]", "value": 52.0, "unit": "%"},
      {"measurement": "resistance rates", "setting": "[3]", "value": 52.1, "unit": "%"}
    ]},
    {"compound": "C[C@H]1COc2c(N3CCN(C)CC3)c(F)cc3c(=O)c(C(=O)O)cn1c23", "note": "[levofloxacin]", "values": [
      {"measurement": "Additive", "setting": "WT isolates [1]", "value": 0},
      {"measurement": "Antagonism", "setting": "WT isolates [1]", "value": 0},
      {"measurement": "Indeterminate", "setting": "WT isolates [1]", "value": 2},
      {"measurement": "Indifferent", "setting": "WT isolates [1]", "value": 4},
      {"measurement": "Synergy: Complete", "setting": "WT isolates [1]", "value": 0},
      {"measurement": "Synergy: Partial", "setting": "WT isolates [1]", "value": 0}
    ]},
    {"compound": "Cc1onc(-c2ccccc2)c1C(=O)N[C@@H]1C(=O)N2[C@@H]1SC(C)(C)[C@@H]2C(=O)O", "note": "[Oxacillin]", "values": [
      {"measurement": "Additive", "setting": "WT isolates [1]", "value": 1},
      {"measurement": "Antagonism", "setting": "WT isolates [1]", "value": 0},
      {"measurement": "Indeterminate", "setting": "WT isolates [1]", "value": 1},
      {"measurement": "Indifferent", "setting": "WT isolates [1]", "value": 3},
      {"measurement": "Synergy: Complete", "setting": "WT isolates [1]", "value": 0},
      {"measurement": "Synergy: Partial", "setting": "WT isolates [1]", "value": 1}
    ]},
    {"compound": "CO[C@H]1/C=C/O[C@@]2(C)Oc3c(C)c(O)c4c(O)c(c(/C=N/N5CCN(C)CC5)c(O)c4c3C2=O)NC(=O)/C(C)=C\\C=C\\[C@H](C)[C@H](O)[C@@H](C)[C@@H](O)[C@@H](C)[C@H](OC(C)=O)[C@@H]1C", "note": "[Rifampin, rifampin]", "values": [
      {"measurement": "Additive", "setting": "WT isolates [1]", "value": 1},
      {"measurement": "Antagonism", "setting": "WT isolates [1]", "value": 0},
      {"measurement": "Indeterminate", "setting": "WT isolates [1]", "value": 0},
      {"measurement": "Indifferent", "setting": "WT isolates [1]", "value": 0},
      {"measurement": "Synergy: Complete", "setting": "WT isolates [1]", "value": 0},
      {"measurement": "Synergy: Partial", "setting": "WT isolates [1]", "value": 5}
    ]},
    {"compound": "CN[C@H](CC(C)C)C(=O)N[C@H]1C(=O)N[C@@H](CC(N)=O)C(=O)N[C@H]2C(=O)N[C@H]3C(=O)N[C@H](C(=O)N[C@H](C(=O)O)c4cc(O)cc(O)c4-c4cc3ccc4O)[C@H](O)c3ccc(c(Cl)c3)Oc3cc2cc(c3O[C@@H]2O[C@H](CO)[C@@H](O)[C@H](O)[C@H]2O[C@H]2C[C@](C)(N)[C@H](O)[C@H](C)O2)Oc2ccc(cc2Cl)[C@H]1O", "note": "[Vancomycin]", "values": [
      {"measurement": "Additive", "setting": "WT isolates [1]", "value": 2},
      {"measurement": "Antagonism", "setting": "WT isolates [1]", "value": 0},
      {"measurement": "Indeterminate", "setting": "WT isolates [1]", "value": 0},
      {"measurement": "Indifferent", "setting": "WT isolates [1]", "value": 4},
      {"measurement": "Synergy: Complete", "setting": "WT isolates [1]", "value": 0},
      {"measurement": "Synergy: Partial", "setting": "WT isolates [1]", "value": 0}
    ]},
    {"compound": "CCC[C@@H]1C[C@@H](C(=O)N[C@@H]([C@H]2O[C@H](SC)[C@H](O)[C@@H](O)[C@H]2O)[C@H](C)Cl)N(C)C1", "note": "[clindamycin]", "values": [
      {"measurement": "R rate", "setting": "S. aureus [2]", "value": 28.5, "unit": "%"},
      {"measurement": "resistance rates", "setting": "[3]", "value": 30.9, "unit": "%"}
    ]},
    {"compound": "CC(=O)O[C@H]1C[C@@]2(C)[C@@H](C[C@@H](O)[C@H]3[C@@]4(C)CC[C@@H](O)[C@@H](C)[C@@H]4CC[C@@]32C)/C1=C(\\CCC=C(C)C)C(=O)O", "note": "[FA, Fusidic acid]", "values": [
      {"measurement": "MIC", "setting": "S. aureus [4]", "value": 2.5, "unit": "µg/mL"},
      {"measurement": "outcome in hollow fiber model", "setting": "[5]", "value": "regrowth and development of resistance by 24 h and 48 h"},
      {"measurement": "number of isolates inhibited", "setting": "S. aureus [2]; years tested 2001-2002, read-out: No. inhibited at MIC (μg/mL) of: 0.06", "value": 8, "unit": "µg/mL"},
      {"measurement": "number of isolates inhibited", "setting": "S. aureus [2]; years tested 2001-2002, read-out: No. inhibited at MIC (μg/mL) of: 0.12", "value": 29, "unit": "µg/mL"},
      {"measurement": "number of isolates inhibited", "setting": "S. aureus [2]; years tested 2001-2002, read-out: No. inhibited at MIC (μg/mL) of: 0.25", "value": 1, "unit": "µg/mL"},
      {"measurement": "number of isolates inhibited", "setting": "S. aureus [2]; years tested 2001-2002, read-out: No. inhibited at MIC (μg/mL) of: ≧2", "value": 2, "unit": "µg/mL"},
      {"measurement": "number of isolates inhibited", "setting": "S. aureus [2]; years tested 2003-2004, read-out: No. inhibited at MIC (μg/mL) of: 0.06", "value": 6, "unit": "µg/mL"},
      {"measurement": "number of isolates inhibited", "setting": "S. aureus [2]; years tested 2003-2004, read-out: No. inhibited at MIC (μg/mL) of: 0.12", "value": 33, "unit": "µg/mL"},
      {"measurement": "number of isolates inhibited", "setting": "S. aureus [2]; years tested 2003-2004, read-out: No. inhibited at MIC (μg/mL) of: ≧2", "value": 3, "unit": "µg/mL"},
      {"measurement": "number of isolates inhibited", "setting": "S. aureus [2]; years tested 2005-2006, read-out: No. inhibited at MIC (μg/mL) of: 0.06", "value": 2, "unit": "µg/mL"},
      {"measurement": "number of isolates inhibited", "setting": "S. aureus [2]; years tested 2005-2006, read-out: No. inhibited at MIC (μg/mL) of: 0.12", "value": 32, "unit": "µg/mL"},
      {"measurement": "number of isolates inhibited", "setting": "S. aureus [2]; years tested 2005-2006, read-out: No. inhibited at MIC (μg/mL) of: 0.25", "value": 2, "unit": "µg/mL"},
      {"measurement": "number of isolates inhibited", "setting": "S. aureus [2]; years tested 2005-2006, read-out: No. inhibited at MIC (μg/mL) of: ≧2", "value": 5, "unit": "µg/mL"},
      {"measurement": "protein binding", "setting": "[6]", "value": "95-97%"},
      {"measurement": "MIC", "setting": "[7]", "value": "0.12 to 0.5", "unit": "µg/mL"},
      {"measurement": "MIC", "setting": "GN species", "value": "≥ 2", "unit": "µg/mL"},
      {"measurement": "MIC values, range", "setting": "[8]", "value": "0.06 to 32", "unit": "µg/mL"},
      {"measurement": "increase in MIC results", "setting": "WT isolates [9]; 10% serum added", "value": 4, "unit": "fold"},
      {"measurement": "effect of lower media pH on protein binding effects", "setting": "WT isolates [9]; medium pH 5.0-6.0", "value": "decreased negative protein binding effects"},
      {"measurement": "single-step mutational rate", "setting": "WT isolates [10]; 4×MIC", "value": "1.2×10^−6"},
      {"measurement": "single-step mutational rate", "setting": "WT isolates [10]; 16×MIC", "value": "9.8×10^−8"}
    ]}
  ]
}
